Assays:
Type in all cases: in vivo
corn [1] = assay: Test Example-2: phytotoxicity by a soil treatment before weeds are generated under upland field conditions; conditions: application amount 500 g a.i/ha, soil spray treatment before weeds are generated, about 21 days after the treatment, score 0 to 5
Excerpt: (§1) Using the formulation prepared according to the methods described above, the herbicidal effect of the bicyclic pyrazolinone derivative of the invention according to the methods shown in Test Examples below was examined. The herbicidal effect with respect to the test weeds or the phytotoxicity with respect to the test crops was examined according to the following criteria, and evaluated in six stage scores of 0 to 5. A vat having an area of 81 cm^2 and a depth of 3.5 cm was filled with upland soil, then, seeds of Amaranthus viridis (green amaranthus), Chenopodium album (common lambsquarters), and corn were seeded thereto, and the seeds were covered with soil of about 0.5 cm. Next day, a wettable powder or an emulsifiable concentrate of the compound of the present invention prepared according to Formulation Example was diluted, and a spray treatment was uniformly performed on the covered oil so as to be a predetermined dosage. The herbicidal effect with respect to the test weeds and the phytotoxicity with respect to corn about 21 days after the treatment were evaluated according to the evaluation criteria in six stages of 0 to 5 described above.

[2] = test system: Eleocharis acicularis (needle spikerush); assay: Test Example-1: herbicidal effect by a treatment before weeds are generated under submerged conditions; conditions: 500 g a.i/ha, pre-emergence treatment, about 15 days after treatment, score 0-5
Summary of the method: (§2)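 Treatment is made before weed emergence: seeds sit in puddled, submerged paddy soil and receive the diluted wettable powder or emulsifiable concentrate into the water at a fixed dosage. Rating on a 0–5 scale follows after around 15 days.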

[3] = test system: Monochoria vaginalis (monochoria); assay: as above; conditions: 500 g a.i/ha, pre-emergence treatment, about 15 days after treatment, score 0-5
Summary of the method: as §2

[4] = test system: other annual broad leaf weeds (Lindernia procumbens, Rotala indica, Elatine triandra); assay: as above; conditions: 500 g a.i/ha, pre-emergence treatment, about 15 days after treatment, score 0-5
Summary of the method: as §2

[5] = test system: Cyperus difformis (smallflower umbrella plant); assay: as above; conditions: 500 g a.i/ha, pre-emergence treatment, about 15 days after treatment, score 0-5
Summary of the method: as §2

[6] = test system: Scirpus juncoides (bulrush); assay: as above; conditions: 500 g a.i/ha, pre-emergence treatment, about 15 days after treatment, score 0-5
Summary of the method: as §2

[7] = test system: Echinochloa oryzicola (barnyard grass); assay: as above; conditions: 500 g a.i/ha, pre-emergence treatment, about 15 days after treatment, score 0-5
Summary of the method: as §2

[8] = test system: Amaranthus viridis (green amaranthus); assay: Test Example-2: herbicidal effect by a soil treatment before weeds are generated under upland field conditions; conditions: application amount 500 g a.i/ha, soil spray treatment before weeds are generated, about 21 days after the treatment, score 0 to 5
Excerpt: as §1

[9] = test system: Chenopodium album (common lambsquarters); assay: as above; conditions: application amount 500 g a.i/ha, soil spray treatment before weeds are generated, about 21 days after the treatment, score 0 to 5
Excerpt: as §1

[10] = test system: Abutilon theophrasti (velvetleaf); assay: Test Example-4: herbicidal effect by a foliage treatment after weeds are generated under upland field conditions; conditions: 500 g a.i/ha, foliage treatment after emergence, about 14 days after treatment, score 0-5
Summary of the method: (§3)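 Sown seeds, under about 0.5 cm of soil cover in upland soil, grew for 14 days before compound application. A wettable powder or emulsifiable concentrate, diluted to a predetermined dosage, was sprayed over foliage in 4000 L/ha water, with scoring on a 0–5 scale after roughly 14 days.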

[11] = test system: Amaranthus viridis (green amaranthus); assay: as above; conditions: 500 g a.i/ha, foliage treatment after emergence, about 14 days after treatment, score 0-5
Summary of the method: as §3

[12] = test system: Chenopodium album (common lambsquarters); assay: as above; conditions: 500 g a.i/ha, foliage treatment after emergence, about 14 days after treatment, score 0-5
Summary of the method: as §3

corn [13] = assay: Test Example-4: phytotoxicity by a foliage treatment after weeds are generated under upland field conditions; conditions: 500 g a.i/ha, foliage treatment after emergence, about 14 days after treatment, score 0-5
Summary of the method: as §3

Compound	Phytotoxicity Corn (corn [1])	Herbicidal effect Eleocharis acicularis [2]	Herbicidal effect Monochoria vaginalis [3]	Herbicidal effect Broadleaf weed [4]	Herbicidal effect Cyperus difformis [5]	Herbicidal effect Scirpus juncoides [6]	Herbicidal effect Echinochloa oryzicola [7]	Herbicidal effect Amaranthus viridis [8]	Herbicidal effect Chenopodium album [9]	Herbicidal effect Abutilon theophrast [10]	Herbicidal effect Amaranthus viridis [11]	Herbicidal effect Chenopodium album [12]	Phytotoxicity Corn (corn [13])
COc1cc(-c2c(Cl)n3n(c2=O)CCOCC3)c(F)cc1F [Example 1-89]	0 (Herbicidal effect/phytotoxicity was 0% to 10%)	5 (Herbicidal effect/phytotoxicity was 90% or greater)	5 (Herbicidal effect/phytotoxicity was 90% or greater)	5 (Herbicidal effect/phytotoxicity was 90% or greater)	5 (Herbicidal effect/phytotoxicity was 90% or greater)	5 (Herbicidal effect/phytotoxicity was 90% or greater)	5 (Herbicidal effect/phytotoxicity was 90% or greater)	5 (Herbicidal effect/phytotoxicity was 90% or greater)	5 (Herbicidal effect/phytotoxicity was 90% or greater)				
O=c1c(-c2cc(NS(=O)(=O)CCl)c(Cl)cc2F)c(Cl)n2n1CCOCC2 [Example 5-49]	0 (Herbicidal effect/phytotoxicity was 0% to 10%)							5 (Herbicidal effect/phytotoxicity was 90% or greater)	5 (Herbicidal effect/phytotoxicity was 90% or greater)	5 (Herbicidal effect/phytotoxicity was 90% or greater)	5 (Herbicidal effect/phytotoxicity was 90% or greater)	5 (Herbicidal effect/phytotoxicity was 90% or greater)	1 (Herbicidal effect/phytotoxicity was 10% to 30%)
CS(=O)(=O)Nc1cc(-c2c(Cl)n3n(c2=O)CCCC3)c(F)cc1Cl [Example 5-35]	0 (Herbicidal effect/phytotoxicity was 0% to 10%)							5 (Herbicidal effect/phytotoxicity was 90% or greater)	5 (Herbicidal effect/phytotoxicity was 90% or greater)	5 (Herbicidal effect/phytotoxicity was 90% or greater)	5 (Herbicidal effect/phytotoxicity was 90% or greater)	5 (Herbicidal effect/phytotoxicity was 90% or greater)	0 (Herbicidal effect/phytotoxicity was 0% to 10%)
C#CCOc1cc(-c2c(Cl)n3n(c2=O)CCCC3)c(F)cc1[N+](=O)[O-] [Example 1-418]	0 (Herbicidal effect/phytotoxicity was 0% to 10%)							5 (Herbicidal effect/phytotoxicity was 90% or greater)	5 (Herbicidal effect/phytotoxicity was 90% or greater)				
Cc1ccc(Oc2cc(-c3c(Cl)n4n(c3=O)CCCC4)c(F)cc2Cl)c(O)c1 [Compound 3-40]	0 (Herbicidal effect/phytotoxicity was 0% to 10%)							5 (Herbicidal effect/phytotoxicity was 90% or greater)	5 (Herbicidal effect/phytotoxicity was 90% or greater)				
C#CCOc1cc(-c2c(Cl)n3n(c2=O)CCCCC3)c(F)cc1Cl [Example 1-239]	0 (Herbicidal effect/phytotoxicity was 0% to 10%)							5 (Herbicidal effect/phytotoxicity was 90% or greater)	5 (Herbicidal effect/phytotoxicity was 90% or greater)	5 (Herbicidal effect/phytotoxicity was 90% or greater)	5 (Herbicidal effect/phytotoxicity was 90% or greater)	5 (Herbicidal effect/phytotoxicity was 90% or greater)	2 (Herbicidal effect/phytotoxicity was 30% to 50%)
COc1cc(-c2c(Cl)n3n(c2=O)CCOCC3)c(Cl)cc1Cl [Example 1-296]	0 (Herbicidal effect/phytotoxicity was 0% to 10%)	5 (Herbicidal effect/phytotoxicity was 90% or greater)	5 (Herbicidal effect/phytotoxicity was 90% or greater)	5 (Herbicidal effect/phytotoxicity was 90% or greater)	5 (Herbicidal effect/phytotoxicity was 90% or greater)	5 (Herbicidal effect/phytotoxicity was 90% or greater)	5 (Herbicidal effect/phytotoxicity was 90% or greater)	5 (Herbicidal effect/phytotoxicity was 90% or greater)	5 (Herbicidal effect/phytotoxicity was 90% or greater)				
O=c1c(-c2cc(NS(=O)(=O)C3CC3)c(Cl)cc2F)c(Cl)n2n1CCCC2 [Example 5-58]	0 (Herbicidal effect/phytotoxicity was 0% to 10%)							5 (Herbicidal effect/phytotoxicity was 90% or greater)	5 (Herbicidal effect/phytotoxicity was 90% or greater)	5 (Herbicidal effect/phytotoxicity was 90% or greater)	5 (Herbicidal effect/phytotoxicity was 90% or greater)	5 (Herbicidal effect/phytotoxicity was 90% or greater)	0 (Herbicidal effect/phytotoxicity was 0% to 10%)
CS(=O)(=O)N(c1cc(-c2c(Cl)n3n(c2=O)CCCC3)c(F)cc1Cl)S(C)(=O)=O [Example 5-71]	0 (Herbicidal effect/phytotoxicity was 0% to 10%)							5 (Herbicidal effect/phytotoxicity was 90% or greater)	5 (Herbicidal effect/phytotoxicity was 90% or greater)	5 (Herbicidal effect/phytotoxicity was 90% or greater)	5 (Herbicidal effect/phytotoxicity was 90% or greater)	5 (Herbicidal effect/phytotoxicity was 90% or greater)	0 (Herbicidal effect/phytotoxicity was 0% to 10%)
C#CCOc1cc(-c2c(Cl)n3n(c2=O)CCCCC3)c(F)cc1F [Example 1-367]	0 (Herbicidal effect/phytotoxicity was 0% to 10%)	5 (Herbicidal effect/phytotoxicity was 90% or greater)	5 (Herbicidal effect/phytotoxicity was 90% or greater)	5 (Herbicidal effect/phytotoxicity was 90% or greater)	5 (Herbicidal effect/phytotoxicity was 90% or greater)	5 (Herbicidal effect/phytotoxicity was 90% or greater)	5 (Herbicidal effect/phytotoxicity was 90% or greater)	5 (Herbicidal effect/phytotoxicity was 90% or greater)	5 (Herbicidal effect/phytotoxicity was 90% or greater)				
CCOC(=O)C(OCC)Oc1ccccc1Oc1cc(-c2c(Cl)n3n(c2=O)CCCC3)c(F)cc1Cl (stereo not drawn) [Compound 3-18]	0 (Herbicidal effect/phytotoxicity was 0% to 10%)	5 (Herbicidal effect/phytotoxicity was 90% or greater)	5 (Herbicidal effect/phytotoxicity was 90% or greater)	5 (Herbicidal effect/phytotoxicity was 90% or greater)	5 (Herbicidal effect/phytotoxicity was 90% or greater)	5 (Herbicidal effect/phytotoxicity was 90% or greater)	5 (Herbicidal effect/phytotoxicity was 90% or greater)	5 (Herbicidal effect/phytotoxicity was 90% or greater)	5 (Herbicidal effect/phytotoxicity was 90% or greater)				
N#CCOc1cc(-c2c(Cl)n3n(c2=O)CCCC3)c(F)cc1Cl [Example 1-171]		5 (Herbicidal effect/phytotoxicity was 90% or greater)	5 (Herbicidal effect/phytotoxicity was 90% or greater)	5 (Herbicidal effect/phytotoxicity was 90% or greater)	5 (Herbicidal effect/phytotoxicity was 90% or greater)	5 (Herbicidal effect/phytotoxicity was 90% or greater)	5 (Herbicidal effect/phytotoxicity was 90% or greater)			5 (Herbicidal effect/phytotoxicity was 90% or greater)	5 (Herbicidal effect/phytotoxicity was 90% or greater)	5 (Herbicidal effect/phytotoxicity was 90% or greater)	3 (Herbicidal effect/phytotoxicity was 50% to 70%)

Source: US9580444B2, “Polycyclic pyrazolinone derivative and herbicide comprising same as effective component thereof” (priority 2013, dated 2017)
